Laboratory results as given in US20210045385A1, “PYRIDAZINONE-SUBSTITUTED KETOXIMES AS HERBICIDES” (FMC Corporation, priority 2018, published 2021).

Assays:
Format in all cases: in vivo
[1] = system: Italian ryegrass (Lolium mutiflorum); assay: Test C postemergence, visual plant response rating
Procedure, shortened: (§1)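 Visual injury on a 0 (no effect) to 100 (complete control) scale versus untreated controls, scored approximately 10 d after treatment under greenhouse conditions. Treatments used surfactant-containing non-phytotoxic solvent formulations, sprayed onto loam–sand soil preemergence or onto one- to two-leaf plants 2–10 cm tall postemergence.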

kochia (Bassia scoparia) [2] = assay: Test C postemergence, visual plant response rating
Procedure, shortened: as §1

[3] = system: ragweed (common ragweed, Ambrosia artemisiifolia); assay: Test C postemergence, visual plant response rating
Procedure, shortened: as §1

[4] = system: barnyardgrass (Echinochloa crus-galli); assay: Test C postemergence, visual plant response rating
Procedure, shortened: as §1

[5] = system: wheat (Triticum aestivum); assay: Test C postemergence, visual plant response rating
Procedure, shortened: as §1

[6] = system: foxtail, giant (giant foxtail, Setaria faberi); assay: Test C postemergence, visual plant response rating
Procedure, shortened: as §1

[7] = system: pigweed (Amaranthus retroflexus); assay: Test C postemergence, visual plant response rating
Procedure, shortened: as §1

[8] = system: blackgrass (Alopecurus myosuroides); assay: Test C postemergence, visual plant response rating
Procedure, shortened: as §1

corn (Zea mays) = assay: Test C postemergence, visual plant response rating
Procedure, shortened: as §1

[9] = system: galium (catchweed bedstraw, Galium aparine); assay: Test C postemergence, visual plant response rating
Procedure, shortened: as §1

[10] = system: Italian ryegrass (Lolium mutiflorum); assay: Test C preemergence, visual plant response rating
Procedure, shortened: as §1

kochia (Bassia scoparia) [11] = assay: Test C preemergence, visual plant response rating
Procedure, shortened: as §1

[12] = system: ragweed (common ragweed, Ambrosia artemisiifolia); assay: Test C preemergence, visual plant response rating
Procedure, shortened: as §1

[13] = system: barnyardgrass (Echinochloa crus-galli); assay: Test C preemergence, visual plant response rating
Procedure, shortened: as §1

[14] = system: foxtail, giant (giant foxtail, Setaria faberi); assay: Test C preemergence, visual plant response rating
Procedure, shortened: as §1

[15] = system: pigweed (Amaranthus retroflexus); assay: Test C preemergence, visual plant response rating
Procedure, shortened: as §1

[16] = system: duck salad (Heteranthera limosa); assay: Test D flooded paddy test, visual plant response rating; conditions: 250 g ai/ha, scale 0 to 100 (0 no effect, 100 complete control), 13 to 15 d
Procedure, shortened: (§2)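 Rating is visual, on a 0 (no effect) to 100 (complete control) scale versus controls, taken 13 to 15 d after treatment in a greenhouse. Treatment went into paddy water kept 3 cm above the soil surface, with plants at the 2-leaf stage.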

[17] = system: barnyardgrass (Echinochloa crus-galli); assay: as above; conditions: 250 g ai/ha, scale 0 to 100 (0 no effect, 100 complete control), 13 to 15 d
Procedure, shortened: as §2

[18] = system: sedge umbrella (small-flower umbrella sedge, Cyperus difformis); assay: as above; conditions: 250 g ai/ha, scale 0 to 100 (0 no effect, 100 complete control), 13 to 15 d
Procedure, shortened: as §2

rice (Oryza sativa) = assay: as above; conditions: 250 g ai/ha, scale 0 to 100 (0 no effect, 100 complete control), 13 to 15 d
Procedure, shortened: as §2

[19] = Test C, postemergence, 125 g ai/ha
[20] = Test C, 31 g ai/ha, 0 is no effect, 100 is complete control
[21] = Test C, 125 g ai/ha, 0 is no effect, 100 is complete control

| SMILES | Ryegrass, Italian plant response rating (0 to 100 scale) ([1]; Postemergence, 31 g ai/ha) | Ryegrass, Italian plant response rating (0 to 100 scale) [1, 19] | Kochia plant response rating (0 to 100 scale) (kochia (Bassia scoparia) [2]; Postemergence, 31 g ai/ha) | Kochia plant response rating (0 to 100 scale) (kochia (Bassia scoparia) [2]; [19]) | Ragweed plant response rating (0 to 100 scale) ([3]; Postemergence, 31 g ai/ha) | Ragweed plant response rating (0 to 100 scale) [3, 19] | Barnyardgrass plant response rating (0 to 100 scale) ([4]; Postemergence, 31 g ai/ha) | Barnyardgrass plant response rating (0 to 100 scale) [4, 19] | Wheat plant response rating (0 to 100 scale) ([5]; Postemergence, 31 g ai/ha) | Wheat plant response rating (0 to 100 scale) [5, 19] | Foxtail, Giant plant response rating (0 to 100 scale) ([6]; Postemergence, 31 g ai/ha) | Foxtail, Giant plant response rating (0 to 100 scale) [6, 19] | Pigweed plant response rating (0 to 100 scale) ([7]; Postemergence, 31 g ai/ha) | Pigweed plant response rating (0 to 100 scale) [7, 19] | Blackgrass plant response rating (0 to 100 scale) ([8]; Postemergence, 31 g ai/ha) | Blackgrass plant response rating (0 to 100 scale) [8, 19] | Corn plant response rating (0 to 100 scale) (corn (Zea mays); Postemergence, 31 g ai/ha) | Corn plant response rating (0 to 100 scale) (corn (Zea mays); [19]) | Galium plant response rating (0 to 100 scale) ([9]; Postemergence, 31 g ai/ha) | Galium plant response rating (0 to 100 scale) [9, 19] | other results |
| --- | --- | --- | --- | --- | --- | --- | --- | --- | --- | --- | --- | --- | --- | --- | --- | --- | --- | --- | --- | --- | --- |
| C#CCO/N=C(\c1cc(Cl)cc(Br)c1)c1c(O)c(C)nn(C)c1=O [Compound 292] | 100 | 100 | 60 | 100 | 100 | 100 | 30 | 70 | 60 | 100 | 60 | 100 | 60 | 90 | 0 | 80 | 0 | 40 | 100 | 100 | Ryegrass, Italian plant response rating (0 to 100 scale) [10, 20]: 80; Ryegrass, Italian plant response rating (0 to 100 scale) [10, 21]: 100; Kochia plant response rating (0 to 100 scale) (kochia (Bassia scoparia) [11]; [20]): 30; Kochia plant response rating (0 to 100 scale) (kochia (Bassia scoparia) [11]; [21]): 100; Ragweed plant response rating (0 to 100 scale) [12, 20]: 90; Ragweed plant response rating (0 to 100 scale) [12, 21]: 100; Barnyardgrass plant response rating (0 to 100 scale) [13, 20]: 60; Barnyardgrass plant response rating (0 to 100 scale) [13, 21]: 100; Foxtail, Giant plant response rating (0 to 100 scale) [14, 20]: 70; Foxtail, Giant plant response rating (0 to 100 scale) [14, 21]: 100; Pigweed plant response rating (0 to 100 scale) [15, 20]: 50; Pigweed plant response rating (0 to 100 scale) [15, 21]: 100; Plant response rating, Ducksalad (Flood) [16]: 45; Plant response rating, Barnyardgrass (Flood) [17]: 0; Plant response rating, Sedge, Umbrella (Flood) [18]: 55; Plant response rating, Rice (Flood) (rice (Oryza sativa)): 0 |
| CO/N=C(/c1cc(F)cc(F)c1C)c1c(O)c(C)nn(C)c1=O [Compound 305] | 10 | 80 | 50 | 70 | 30 | 70 | 20 | 30 | 0 | 0 | 30 | 50 | 60 | 90 | 10 | 20 | 0 | 0 | 70 | 70 | Ryegrass, Italian plant response rating (0 to 100 scale) ([10]; 125 g ai/ha): 30; Ryegrass, Italian plant response rating (0 to 100 scale) [10, 20]: 0; Kochia plant response rating (0 to 100 scale) (kochia (Bassia scoparia) [11]; 125 g ai/ha): 30; Kochia plant response rating (0 to 100 scale) (kochia (Bassia scoparia) [11]; [20]): 10; Ragweed plant response rating (0 to 100 scale) ([12]; 125 g ai/ha): 20; Ragweed plant response rating (0 to 100 scale) [12, 20]: 20; Barnyardgrass plant response rating (0 to 100 scale) ([13]; 125 g ai/ha): 20; Barnyardgrass plant response rating (0 to 100 scale) [13, 20]: 10; Foxtail, Giant plant response rating (0 to 100 scale) ([14]; 125 g ai/ha): 30; Foxtail, Giant plant response rating (0 to 100 scale) [14, 20]: 10; Pigweed plant response rating (0 to 100 scale) ([15]; 125 g ai/ha): 70; Pigweed plant response rating (0 to 100 scale) [15, 20]: 30; Plant response rating, Ducksalad (Flood) [16]: 0; Plant response rating, Barnyardgrass (Flood) [17]: 0; Plant response rating, Sedge, Umbrella (Flood) [18]: 0; Plant response rating, Rice (Flood) (rice (Oryza sativa)): 0 |
| CON=C(c1cc(Cl)cc(OC)c1)c1c(O)c(C)nn(C)c1=O [Compound 175] | 50 | 70 | 80 | 100 | 80 | 90 | 50 | 70 | 0 | 0 | 50 | 80 | 50 | 70 | 20 | 30 | 10 | 20 | 90 | 100 | Ryegrass, Italian plant response rating (0 to 100 scale) ([10]; 125 g ai/ha): 50; Ryegrass, Italian plant response rating (0 to 100 scale) [10, 20]: 30; Kochia plant response rating (0 to 100 scale) (kochia (Bassia scoparia) [11]; 125 g ai/ha): 80; Kochia plant response rating (0 to 100 scale) (kochia (Bassia scoparia) [11]; [20]): 40; Ragweed plant response rating (0 to 100 scale) ([12]; 125 g ai/ha): 100; Ragweed plant response rating (0 to 100 scale) [12, 20]: 40; Barnyardgrass plant response rating (0 to 100 scale) ([13]; 125 g ai/ha): 70; Barnyardgrass plant response rating (0 to 100 scale) [13, 20]: 50; Foxtail, Giant plant response rating (0 to 100 scale) ([14]; 125 g ai/ha): 70; Foxtail, Giant plant response rating (0 to 100 scale) [14, 20]: 30; Pigweed plant response rating (0 to 100 scale) ([15]; 125 g ai/ha): 30; Pigweed plant response rating (0 to 100 scale) [15, 20]: 0; Plant response rating, Ducksalad (Flood) [16]: 0; Plant response rating, Barnyardgrass (Flood) [17]: 0; Plant response rating, Sedge, Umbrella (Flood) [18]: 0; Plant response rating, Rice (Flood) (rice (Oryza sativa)): 0 |
